From PMC13184981, “Discovery and Development of a Potent LIMK2 Isoform-Specific Degrader” (ACS Chemical Biology, 2026)

Key:
LIMK1 = target: T1, LIMK1 (Homo sapiens, UniProt P53667); test: Western blot of endogenous LIMK1 in HuCCT1 cells; assay type: cell-based; settings: HuCCT1, 6 h treatment
T1 construct: host or cells: HEK293T
Protocol: (§1) HuCCT1 cell line was cultured in Roswell Park Memorial Institute (RPMI) 1640 medium supplemented with GlutaMAX, 10% fetal bovine serum (FBS), and 1% penicillin/streptomycin. The cell line was maintained in an incubator with 5% CO2 at 37 °C. For the treatment, 3 × 10^5 cells were plated and treated with the compounds and DMSO as the control for 6 h. The cells were then lysed using RIPA buffer (50 mM Tris-HCl pH 7.4, 150 mM NaCl, 1% Triton X-100, 1% NaDOC, 0.1% SDS, 1 mM EDTA), freshly supplemented with protease and phosphatase inhibitor cocktails (Sigma-Aldrich, Darmstadt, Germany). After 1 h incubation on ice, the lysates were centrifuged for 30 min at […], and the protein-containing supernatant was collected. The protein concentrations were determined using Protein Assay Dye Reagent Concentrate (Bradford, Bio-Rad, Hercules, CA, USA) and Pre-Diluted Protein Assay Standards: Bovine Serum Albumin (BSA) Set (Thermo Fisher Scientific, Darmstadt, Germany). Then, equal amounts of protein was mixed with Roti-Load 1 dye (Carl Roth, Karlsruhe, Germany) and 4x Laemmli Buffer (Bio-Rad, Hercules, CA, USA), denatured at 95 °C, and run on NuPAGE 4–12% bis-Tris gels (Thermo Fisher Scientific). Proteins were blotted on methanol-activated PVDF Transfer Membranes (Thermo Fisher Scientific) using the wet transfer method with the transfer buffer (Thermo Fisher Scientific) and 20% methanol. […]

phospho-Cofilin (pCFL) = test: Western blot of phospho-cofilin in HuCCT1 cells; assay type: cell-based, human; settings: HuCCT1, 6 h
Protocol: as §1

[1] = Microsomal stability assay; assay type: in vitro ADME; settings: rat liver microsomes
Protocol: The solubilized test compound (5 μL, final concentration 10 μM) was preincubated at 37 °C in 432 μL of 0.1 M phosphate buffer (pH 7.4) together with 50 μL of an NADPH-regenerating system containing 30 mM glucose-6-phosphate, 4 U/mL glucose-6-phosphate dehydrogenase, 10 mM NADP, and 30 mM MgCl2. After 5 min, the reaction was initiated by adding 13 μL of rat liver microsomes (Sprague–Dawley, Invitrogen; 20 mg mL^–1 protein in 0.1 M phosphate buffer) and incubated in a shaking water bath at 37 °C. The reaction was quenched at 0, 15, 30, and 60 min by adding 500 μL of ice-cold methanol. Samples were centrifuged at 5,000 × g for 5 min at 4 °C, and the supernatants were analyzed by HPLC to quantify the remaining parent compound. HPLC conditions were as follows: mobile phase composed of methanol (40–90%) and water with 0.1% formic acid (10–60%), optimized for the test compound; flow rate 1 mL/min; stationary phase Purospher STAR RP-18 column (5 μm, 125 × 4 mm) with a guard column (5 μm, 4 × 4 mm); detection wavelengths at 254 and 280 nm; injection volume 50 μL. […] Compound concentrations were determined using an external calibration curve. Data are expressed as mean ± SEM of the remaining parent compound from three independent experiments.

LIMK2 = LIMK2 (Homo sapiens, UniProt P53671); test: NanoBRET cellular target engagement, LIMK2; assay type: cell-based; design: host or cells: HEK293T
Chain of LIMK2 (P53671 whole entry): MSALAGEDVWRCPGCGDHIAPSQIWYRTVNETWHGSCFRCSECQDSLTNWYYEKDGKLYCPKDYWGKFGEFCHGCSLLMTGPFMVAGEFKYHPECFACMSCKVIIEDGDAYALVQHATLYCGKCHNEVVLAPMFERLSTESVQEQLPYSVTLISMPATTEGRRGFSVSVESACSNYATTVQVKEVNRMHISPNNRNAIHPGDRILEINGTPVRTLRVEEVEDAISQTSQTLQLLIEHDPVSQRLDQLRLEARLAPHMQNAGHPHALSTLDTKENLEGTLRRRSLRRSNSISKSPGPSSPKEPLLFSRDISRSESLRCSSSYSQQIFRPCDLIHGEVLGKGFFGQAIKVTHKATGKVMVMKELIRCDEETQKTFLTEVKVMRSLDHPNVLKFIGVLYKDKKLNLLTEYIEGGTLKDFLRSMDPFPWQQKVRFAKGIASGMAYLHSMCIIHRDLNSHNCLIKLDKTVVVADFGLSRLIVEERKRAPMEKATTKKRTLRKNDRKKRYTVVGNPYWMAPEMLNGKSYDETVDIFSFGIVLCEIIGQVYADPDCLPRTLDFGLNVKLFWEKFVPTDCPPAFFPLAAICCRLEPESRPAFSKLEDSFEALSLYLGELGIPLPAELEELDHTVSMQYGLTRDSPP
Protocol: Gene encoding LIMK1 (Promega, NV3391) and LIMK2 (Promega, NV1531), CRBN (Promega, N2741) proteins cloned in frame with NanoLuc fusion tag at the C-terminus, were transfected into HEK293T cells using FuGENE HD (Promega, E2312) following manufacture’s protocol and proteins were allowed to express for 20 h at 37 °C and 5% CO2. […] The 10 μL of transfected cells after trypsinization and resuspending in Opti-MEM (Life Technologies, 31985070) were dispensed into each well of the 384-well plate (Greiner 781207) at a cell density of 2 × 10^5 cells/mL. For dose–response BRET measurements, compounds at various concentrations, immediately followed by Tracer K10 (Promega, Tracer DB ID: T000008) for LIMK1 and LIMK2, CRBN Tracer (Promega, Tracer DB ID: T000018) for CRBN at an optimum KD concentration chosen from TracerDB (tracerdb.org), were pipetted using an Echo acoustic dispenser (Labcyte). The system was allowed to equilibrate for 2 h at 37 °C and 5% CO2 before BRET measurements. To measure BRET signal, the NanoBRET NanoGlo Substrate (Promega, N1573) was added as per the manufacturer’s protocol, and filtered luminescence was measured on a PHERAstar plate reader (BMG Labtech) equipped with a luminescence filter pair (450 nm BP filter (donor) and 610 nm LP filter (acceptor)). For lysed NanoBRET measurement, 25 nL of Digitonin (0.05 μg/μL) was pipetted to each well using Labcyte, and the plate was incubated for 5 min at 37 °C and 5% CO2. After incubation, the BRET signals were measured by a PHERAstar plate reader following the same procedure as intact NanoBRET measurement. […] The BRET ratios are normalized to both of them in the prism output data file. Competitive displacement data were then normalized to controls and were graphed using GraphPad Prism 9 software employing a normalized 3-parameter curve fit with the following equation: Y = 100/(1 + 10̂(X – logIC50)).

T1 sequence (P53667 whole entry): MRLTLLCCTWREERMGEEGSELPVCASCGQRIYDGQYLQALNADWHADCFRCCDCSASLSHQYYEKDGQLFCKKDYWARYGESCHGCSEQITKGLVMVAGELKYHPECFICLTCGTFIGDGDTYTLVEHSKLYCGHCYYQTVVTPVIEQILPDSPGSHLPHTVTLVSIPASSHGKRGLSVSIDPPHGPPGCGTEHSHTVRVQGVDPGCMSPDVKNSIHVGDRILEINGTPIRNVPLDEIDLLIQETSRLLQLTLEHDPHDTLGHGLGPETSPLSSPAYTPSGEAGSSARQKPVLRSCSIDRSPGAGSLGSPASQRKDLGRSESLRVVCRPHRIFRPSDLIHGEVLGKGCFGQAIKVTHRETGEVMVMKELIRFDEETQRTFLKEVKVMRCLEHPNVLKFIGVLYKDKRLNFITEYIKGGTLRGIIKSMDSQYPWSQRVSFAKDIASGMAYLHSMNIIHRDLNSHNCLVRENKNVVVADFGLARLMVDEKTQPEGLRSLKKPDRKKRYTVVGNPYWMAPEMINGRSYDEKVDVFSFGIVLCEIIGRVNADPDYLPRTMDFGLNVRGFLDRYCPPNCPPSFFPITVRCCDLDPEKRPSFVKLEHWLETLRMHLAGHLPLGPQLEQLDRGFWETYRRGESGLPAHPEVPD

Cc1c(OCc2cn(CCCCC(=O)Nc3ncc(-c4cc(C(F)F)nn4-c4c(Cl)cccc4Cl)s3)nn2)cccc1N1CCC(=O)NC1=O [22b]
LIMK1 degradation (Western blot) (LIMK1): LIMK1 protein levels remained unaffected
pCFL levels (Western blot) (phospho-Cofilin (pCFL)): no significant changes in pCFL
metabolic stability (in words) [1]: favorable metabolic stability
parent PROTAC remaining ([1]; 60 min, 10 μM, HPLC): 85%
IC50 (LIMK2): 80 nM
LIMK2 binary IC50 stronger than LIMK1 (LIMK2; NanoBRET, LIMK2 vs LIMK1): 5 fold
